# Key:
# [1] = Emission spectra, front-face illumination, excitation at 600 nm; type: physicochemical; details: for emission peak: in 0.5% intralipid; for emission maximum: in water
# Protocol: All fluorescence measurements were performed using front-face illumination and detection, using the sample holder shown in FIG. 18. The incident light was redirected from the usual position using two mirrors. The position of the sample could be adjusted with a movable stage. The re-emergent light passed through one or more optical filters prior to reaching the destination.
# The sample consisted of either a cuvette containing the intralipid, or a quartz slide covering the chicken muscle and skin (FIG. 19). Excitation at 600 nm was provided by the fundamental output of a rhodamine 6G dye laser. This dye laser was synchronously pumped by a mode-locked argon ion laser, and cavity dumped at 1.88 MHz.
# For the present studies we used two fluorophores with ns decay times, Rh800 and IcG, and a long lifetime metal ligand complex. We refer to this long lifetime reference as the Ru complex (FIG. 1). All three fluorophores can be excited at 600 nm. In water Rh800 emits maximally near 706 nm, and IcG near 805 nm. […] The emission spectra of Rh800 and IcG in 0.5% intralipid is similar to those observed in water (FIG. 2).
# [2] = Frequency-domain intensity decay (fluorescence lifetime) measurements; type: physicochemical; details: for decay time: Rh800 in 0.5% intralipid, Ru complex in PVA film
# Protocol: Frequency domain intensity decay measurements were performed as described previously. Phase angles and modulation measurements at frequencies greater than 1.88 MHz were accomplished using the harmonic content of the picosecond pulses. The excitation was polarized vertically, and the emission detected without an emission polarizer. The re-emergent light was either observed directly, or through two cut-off filters (630 and 660 nm) to remove scattered light and/or attenuate the fluorophore emission relative to that of the long lived reference.
# A long lifetime reference signal was provided by [Ru(bPY)2(dppz)](PF6)^2 in a polyvinyl alcohol (PVA) film, where bpy is 2,2′-bipyridine and dppz is dipyrido[3,2-a:2′,3′-cl]phenazine. Such metal-ligand complexes are known to display lifetimes from 100 ns to 13 (s. The intensity decay time of [Ru(bpy)2(dppz)](PF6)2 in the PVA film was near 800 ns (Table 1 as shown in FIG. 20).
# The intensity decay data was analyzed in terms of the multi-exponential model [formula]
# In this expression αi represents the pre-exponential factors associated with each lifetime τi. The fractional contribution of each decay time component to the steady state intensity is given by [formula]
# The values of Σαi and Σfi are typically normalized to unity. The mean lifetime is given by [formula]
# In the frequency-domain measurements the measured quantities are the phase shift of the emission […] and its modulation (m107) at the light modulation frequency ωi in radians/sec. The values of αi and τi are determined by non-linear least squares fitting and minimization of the goodness-of-fit parameter X^2R. [formula]
# In this expression the subscript c refers to calculated values of φω and mω for assumed values of αi and τi and ν is the number of degrees of freedom. δω and δm represent the uncertainties in the measured values. In some cases we performed a global analysis of data measured at more than one fluorophore concentrations. In this case the sum in equation 3 extends over these multiple concentrations (k).
# We examined the frequency-domain intensity decay of Rh800 and IcG in 0.5% intralipid. As the concentration of Rh800 increased the frequency response shifted to higher frequency (FIG. 5). […] In 0.5% intralipid the intensity decay of Rh800 becomes more complex. The data could be fit to a two decay time model. The individual decay times and the mean decay times decreased with increasing Rh800 concentrations (FIG. 6). Similar results are found for IcG, with the decay times and mean decay time decreasing with increasing IcG concentration (Table III, as shown in FIG. 22).
# [3] = humans; cited from earlier work
# [4] = cited from earlier work
Compound,emission peak [1] [nm],emission maximum [1] [nm],decay time [2] [ns],"intensity decay time ([2]; in water, no intralipid, single exponential) [ns]",clearance from circulation [3],intensity decay time in PVA film ([2]; polyvinyl alcohol film) [ns],fluorescence in water [4]
Rhodamine 800 [Rh800],~710,~706,1.62,0.686,–,–,–
"CC1(C)C(/C=C/C=C/C=C/C=C2\N(CCCCS(=O)(=O)O)c3ccc4ccccc4c3C2(C)C)=[N+](CCCCS(=O)(=O)[O-])c2ccc3ccccc3c21 [IcG, indocyanine green]",~820,~805,–,–,rapidly cleared from circulation,–,–
"Ruthenium bis-2,2′-bipyridine dipyridophenazine [Ru complex]",–,–,834,–,–,~800,essentially non-fluorescent in water
